Assay results from PMC12566046, “Arylpiperazinyl-Benzocycloheptapyrrole-Carboxamides Endowed with Dual Anticancer and Antiviral Activities” (Molecules, 2025).

Experiments:
[1] = system: NCI cancer panel (all cell lines); test: NCI-60 five-dose assay, overall mean graph midpoint (MG_MID); assay type: cell-based, human; conditions: Homo sapiens; MG_MID over all panels; read-out: GI50 mean graph midpoint (MG_MID)
Method: (§1) Due to these preliminary results, six compounds, 1, 5, 10, 11, 17, and 20, were selected for the five-dose screen NCI-programme against the same panel of tumour cell lines.
(§2) Next, a mean graph midpoint (MG_MD) was calculated for compounds 1, 5, 10, 11, 17, and 20 and reported as waterfall graphs GI50, TGI, and LC50 in the Supplementary Materials (Figures S69–S86). In Table 9, we reported the average GI50 for the nine-cancer panels, underlining both the activity and selectivity for compounds 1, 10, 11, and 20.

[2] = system: UACC-62 (melanoma cell line); test: NCI-60 five-dose assay
[3] = system: MDA-MB-435 (melanoma cell line); test: NCI-60 five-dose assay
[4] = system: SR (leukemia cell line); test: NCI-60 five-dose assay; assay type: cell-based, human; conditions: Homo sapiens, five doses (10^−4–10^−8 M), read-out: Growth inhibition 50 (GI50)
[5] = system: Leukemia panel; test: NCI-60 five-dose assay, panel-level GI50 (mean graph midpoint, range); assay type: cell-based, human; conditions: Homo sapiens; Leukemia panel average; read-out: GI50 mean graph midpoint (MG_MID)
Method: as §1, §2

[6] = system: Melanoma panel; test: as above; assay type: cell-based, human; conditions: Homo sapiens; Melanoma panel average; read-out: GI50 mean graph midpoint (MG_MID)
Method: as §1, §2

[7] = system: Colon Cancer panel; test: as above; assay type: cell-based, human; conditions: Homo sapiens; Colon Cancer panel average; read-out: GI50 mean graph midpoint (MG_MID)
Method: as §1, §2

[8] = system: RPMI-8226 (leukemia cell line); test: NCI-60 five-dose assay; assay type: cell-based, human; conditions: Homo sapiens, five doses (10^−4–10^−8 M), read-out: Growth inhibition 50 (GI50)
[9] = system: SK-MEL-5 (melanoma cell line); test: NCI-60 five-dose assay
[10] = system: cell line (breast cancer); test: NCI-60 single-dose assay; assay type: cell-based; conditions: Homo sapiens, HS%/(T cell line), 10^−5 M, read-out: growth inhibition (GI%)
Procedure, shortened: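 Single-dose cytotoxicity test run in the NCI-60 panel of human cancer cell lines. Threshold inhibition criteria across a minimum number of lines decided progression to five-dose testing.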

[11] = system: MOLT-4 (leukemia cell line); test: NCI-60 five-dose assay; assay type: cell-based, human; conditions: Homo sapiens, five doses (10^−4–10^−8 M), read-out: Growth inhibition 50 (GI50)
[12] = system: HL-60(TB) (leukemia cell line); test: NCI-60 five-dose assay; assay type: cell-based, human; conditions: Homo sapiens, five doses (10^−4–10^−8 M), read-out: Growth inhibition 50 (GI50)
[13] = system: Breast Cancer panel; test: NCI-60 five-dose assay, panel-level GI50 (mean graph midpoint); assay type: cell-based, human; conditions: Homo sapiens; Breast Cancer panel average; read-out: GI50 mean graph midpoint (MG_MID)
Method: as §1, §2

[14] = system: Non-Small Cell Lung Cancer panel; test: as above; assay type: cell-based, human; conditions: Homo sapiens; Non-Small Cell Lung Cancer panel average; read-out: GI50 mean graph midpoint (MG_MID)
Method: as §1, §2

[15] = system: CNS Cancer panel; test: as above; assay type: cell-based, human; conditions: Homo sapiens; CNS Cancer panel average; read-out: GI50 mean graph midpoint (MG_MID)
Method: as §1, §2

[16] = system: Ovarian Cancer panel; test: as above; assay type: cell-based, human; conditions: Homo sapiens; Ovarian Cancer panel average; read-out: GI50 mean graph midpoint (MG_MID)
Method: as §1, §2

[17] = system: Prostate Cancer panel; test: as above; assay type: cell-based, human; conditions: Homo sapiens; Prostate Cancer panel average; read-out: GI50 mean graph midpoint (MG_MID)
Method: as §1, §2

[18] = system: Renal Cancer panel; test: as above; assay type: cell-based, human; conditions: Homo sapiens; Renal Cancer panel average; read-out: GI50 mean graph midpoint (MG_MID)
Method: as §1, §2

[19] = system: SK-MEL-28 (melanoma cell line); test: NCI-60 five-dose assay
[20] = system: HCC-2998 (colon cancer cell line); test: NCI-60 five-dose assay; assay type: cell-based, human; conditions: Homo sapiens, five doses (10^−4–10^−8 M), read-out: Growth inhibition 50 (GI50)
[21] = system: M14 (melanoma cell line); test: NCI-60 five-dose assay
[22] = system: K-562 (leukemia cell line); test: NCI-60 five-dose assay; assay type: cell-based, human; conditions: Homo sapiens, K562, five doses (10^−4–10^−8 M), read-out: Growth inhibition 50 (GI50)

SMILES: O=C(NCCCN1CCN(Cc2ccccc2)CC1)c1c(Cl)[nH]c2c1CCCc1ccccc1-2 [Compound 20, N-(3-(4-Benzylpiperazin-1-yl)propyl)-2-chloro-1,4,5,6-tetrahydrobenzo[6,7]cyclohepta[1,2-b]pyrrole-3-carboxamide]
- GI50 [1]: 6.76 µM
- GI50 ([2]; Homo sapiens, UACC-62, read-out: Growth inhibition 50 (GI50)): 6.93 µM
- CC50 ([2]; Homo sapiens, UACC-62, read-out: LC50 (molar concentration leading to 50% net cell death)): 45.7 µM
- TGI (molar concentration giving total growth inhibition) ([2]; UACC-62): 19.95 µM
- GI50 ([3]; Homo sapiens, MDA-MB-435, read-out: Growth inhibition 50 (GI50)): 4.9 µM
- CC50 ([3]; Homo sapiens, MDA-MB-435, read-out: LC50 (molar concentration leading to 50% net cell death)): 49 µM
- TGI (molar concentration giving total growth inhibition) ([3]; MDA-MB-435): 17.78 µM
- GI50 [4]: 0.53 µM
- GI50 [5]: 3.39 µM
- GI50 [6]: 3.39 µM
- GI50 [7]: 4.17 µM
- GI50 [8]: 3.69 µM
- GI50 ([9]; Homo sapiens, SK-MEL-5, read-out: Growth inhibition 50 (GI50)): 1.79 µM
- CC50 ([9]; Homo sapiens, SK-MEL-5, read-out: LC50 (molar concentration leading to 50% net cell death)): 6.46 µM
- TGI (molar concentration giving total growth inhibition) ([9]; SK-MEL-5): 3.39 µM
- inhibition at 10 µM [10]: 72.4%
- GI50 [11]: 4.78 µM
- GI50 [12]: 5.06 µM
- GI50 [13]: 6.92 µM
- GI50 [14]: 10.5 µM
- GI50 [15]: 12 µM
- GI50 [16]: 12 µM
- GI50 [17]: 9.55 µM
- GI50 [18]: 9.12 µM
- GI50 ([19]; Homo sapiens, SK-MEL-28, read-out: Growth inhibition 50 (GI50)): 2.11 µM
- CC50 ([19]; Homo sapiens, SK-MEL-28, read-out: LC50 (molar concentration leading to 50% net cell death)): 13.2 µM
- TGI (molar concentration giving total growth inhibition) ([19]; SK-MEL-28): 4.9 µM
- GI50 [20]: 1.77 µM
- GI50 ([21]; Homo sapiens, M14, read-out: Growth inhibition 50 (GI50)): 2.01 µM
- CC50 ([21]; Homo sapiens, M14, read-out: LC50 (molar concentration leading to 50% net cell death)): 8.71 µM
- TGI (molar concentration giving total growth inhibition) ([21]; M14): 4.17 µM
- GI50 [22]: 2.97 µM
